# Results reported in PubChem BioAssay (NCI).
#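 Assay format: 96-well plates, 48-hour exposure. Here, GI50 denotes the concentration required for 50% inhibition of growth. TGI: total growth inhibition.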
# Experiments:
# Experiment in all cases: NCI anticancer screen, dose series, 48 h
# A549 NSCLC = test system: A549 NSCLC
# NCI-H522 lung = test system: NCI-H522 lung
# HOP-92 NSCLC = test system: HOP-92 NSCLC
# SK-OV-3 ovarian = test system: SK-OV-3 ovarian
# OVCAR-3 ovarian = test system: OVCAR-3 ovarian
# RXF 393 renal = test system: RXF 393 renal
# ACHN renal = test system: ACHN renal
# HCT-15 colon = test system: HCT-15 colon
# SF-268 CNS = test system: SF-268 CNS
# MOLT-4 leukemia = test system: MOLT-4 leukemia
# MDA-MB-468 breast = test system: MDA-MB-468 breast
# TK-10 renal = test system: TK-10 renal
# COLO 205 colon = test system: COLO 205 colon
# UACC-257 melanoma = test system: UACC-257 melanoma
# SF-295 CNS = test system: SF-295 CNS
# SNB-19 CNS = test system: SNB-19 CNS
# LOX IMVI melanoma = test system: LOX IMVI melanoma
# NCI/ADR-RES ovarian = test system: NCI/ADR-RES ovarian
# HL-60(TB) leukemia = test system: HL-60(TB) leukemia
# CCRF-CEM leukemia = test system: CCRF-CEM leukemia
# BT-549 breast = test system: BT-549 breast
# SK-MEL-2 melanoma = test system: SK-MEL-2 melanoma
# RPMI-8226 leukemia = test system: RPMI-8226 leukemia
# KM12 colon = test system: KM12 colon
# UO-31 renal = test system: UO-31 renal
# SR leukemia = test system: SR leukemia
# EKVX NSCLC = test system: EKVX NSCLC
# SK-MEL-5 melanoma = test system: SK-MEL-5 melanoma
# 786-0 renal = test system: 786-0 renal
# NCI-H460 lung = test system: NCI-H460 lung
# HOP-62 NSCLC = test system: HOP-62 NSCLC
# HS 578T breast = test system: HS 578T breast
# U251 CNS = test system: U251 CNS
# SN12C renal = test system: SN12C renal
# IGROV1 ovarian = test system: IGROV1 ovarian
# NCI-H23 lung = test system: NCI-H23 lung
# PC-3 prostate = test system: PC-3 prostate
# A498 renal = test system: A498 renal
# SK-MEL-28 melanoma = test system: SK-MEL-28 melanoma
# DU-145 prostate = test system: DU-145 prostate
# K-562 leukemia = test system: K-562 leukemia
# HCT-116 colon = test system: HCT-116 colon
# NCI-H226 lung = test system: NCI-H226 lung
# MCF7 breast = test system: MCF7 breast
# T-47D breast = test system: T-47D breast
# OVCAR-5 ovarian = test system: OVCAR-5 ovarian
# UACC-62 melanoma = test system: UACC-62 melanoma
# MDA-MB-231 breast = test system: MDA-MB-231 breast
# M14 melanoma = test system: M14 melanoma
# HCC-2998 colon = test system: HCC-2998 colon
# CAKI-1 renal = test system: CAKI-1 renal
# SW-620 colon = test system: SW-620 colon
# MALME-3M melanoma = test system: MALME-3M melanoma
# HT29 colon = test system: HT29 colon
# SF-539 CNS = test system: SF-539 CNS
# OVCAR-8 ovarian = test system: OVCAR-8 ovarian
# MDA-MB-435 = test system: MDA-MB-435
# OVCAR-4 ovarian = test system: OVCAR-4 ovarian
compound,measurement,setting,value
COc1ccc(C(=O)/C=C/c2ccc3ccccc3c2)cc1S(N)(=O)=O,GI50,A549 NSCLC,1.99 µM
same,TGI,A549 NSCLC,7.72 µM
same,GI50,NCI-H522 lung,1.62 µM
same,TGI,NCI-H522 lung,3.32 µM
same,GI50,HOP-92 NSCLC,1.9 µM
same,TGI,HOP-92 NSCLC,9.2 µM
same,GI50,SK-OV-3 ovarian,4.91 µM
same,TGI,SK-OV-3 ovarian,18.6 µM
same,GI50,OVCAR-3 ovarian,1.58 µM
same,TGI,OVCAR-3 ovarian,3.38 µM
same,GI50,RXF 393 renal,1.57 µM
same,TGI,RXF 393 renal,3.34 µM
same,GI50,ACHN renal,1.78 µM
same,TGI,ACHN renal,3.37 µM
same,GI50,HCT-15 colon,0.574 µM
same,TGI,HCT-15 colon,2.08 µM
same,GI50,SF-268 CNS,3.2 µM
same,TGI,SF-268 CNS,13.3 µM
same,GI50,MOLT-4 leukemia,2.09 µM
same,TGI,MOLT-4 leukemia,4.95 µM
same,GI50,MDA-MB-468 breast,1.43 µM
same,TGI,MDA-MB-468 breast,2.9 µM
same,GI50,TK-10 renal,2.04 µM
same,TGI,TK-10 renal,8.17 µM
same,GI50,COLO 205 colon,1.96 µM
same,TGI,COLO 205 colon,4.06 µM
same,GI50,UACC-257 melanoma,3.79 µM
same,TGI,UACC-257 melanoma,14.5 µM
same,GI50,SF-295 CNS,1.88 µM
same,TGI,SF-295 CNS,4.89 µM
same,GI50,SNB-19 CNS,2.15 µM
same,TGI,SNB-19 CNS,5.95 µM
same,GI50,LOX IMVI melanoma,1.32 µM
same,TGI,LOX IMVI melanoma,2.59 µM
same,GI50,NCI/ADR-RES ovarian,2.7 µM
same,TGI,NCI/ADR-RES ovarian,8.21 µM
same,GI50,HL-60(TB) leukemia,1.61 µM
same,TGI,HL-60(TB) leukemia,4.11 µM
same,GI50,CCRF-CEM leukemia,2.63 µM
same,TGI,CCRF-CEM leukemia,6.4 µM
same,GI50,BT-549 breast,1.53 µM
same,TGI,BT-549 breast,3.27 µM
same,GI50,SK-MEL-2 melanoma,12.2 µM
same,TGI,SK-MEL-2 melanoma,25.4 µM
same,GI50,RPMI-8226 leukemia,1.63 µM
same,TGI,RPMI-8226 leukemia,4.62 µM
same,GI50,KM12 colon,1.56 µM
same,TGI,KM12 colon,3.33 µM
same,GI50,UO-31 renal,1.31 µM
same,TGI,UO-31 renal,2.58 µM
same,GI50,SR leukemia,0.867 µM
same,TGI,SR leukemia,3.54 µM
same,GI50,EKVX NSCLC,6.61 µM
same,TGI,EKVX NSCLC,20.1 µM
same,GI50,SK-MEL-5 melanoma,3.48 µM
same,TGI,SK-MEL-5 melanoma,13.6 µM
same,GI50,786-0 renal,1.69 µM
same,TGI,786-0 renal,3.62 µM
same,GI50,NCI-H460 lung,2.96 µM
same,TGI,NCI-H460 lung,8.84 µM
same,GI50,HOP-62 NSCLC,1.99 µM
same,TGI,HOP-62 NSCLC,5.49 µM
same,GI50,HS 578T breast,17.5 µM
same,TGI,HS 578T breast,54.8 µM
same,GI50,U251 CNS,1.19 µM
same,TGI,U251 CNS,2.46 µM
same,GI50,SN12C renal,1.56 µM
same,TGI,SN12C renal,3.25 µM
same,GI50,IGROV1 ovarian,2.07 µM
same,TGI,IGROV1 ovarian,5.36 µM
same,GI50,NCI-H23 lung,1.73 µM
same,TGI,NCI-H23 lung,3.3 µM
same,GI50,PC-3 prostate,1.78 µM
same,TGI,PC-3 prostate,4.05 µM
same,GI50,A498 renal,14.6 µM
same,TGI,A498 renal,28.2 µM
same,GI50,SK-MEL-28 melanoma,2.13 µM
same,TGI,SK-MEL-28 melanoma,5.14 µM
same,GI50,DU-145 prostate,3.31 µM
same,TGI,DU-145 prostate,11.8 µM
same,GI50,K-562 leukemia,1.58 µM
same,TGI,K-562 leukemia,5.45 µM
same,GI50,HCT-116 colon,1.9 µM
same,TGI,HCT-116 colon,4.82 µM
same,GI50,NCI-H226 lung,2.36 µM
same,TGI,NCI-H226 lung,8.37 µM
same,GI50,MCF7 breast,1.54 µM
same,TGI,MCF7 breast,4.72 µM
same,GI50,T-47D breast,1.76 µM
same,TGI,T-47D breast,6.77 µM
same,GI50,OVCAR-5 ovarian,1.75 µM
same,TGI,OVCAR-5 ovarian,4.15 µM
same,GI50,UACC-62 melanoma,1.6 µM
same,TGI,UACC-62 melanoma,3.32 µM
same,GI50,MDA-MB-231 breast,2.5 µM
same,TGI,MDA-MB-231 breast,7.51 µM
same,GI50,M14 melanoma,2.26 µM
same,TGI,M14 melanoma,5.98 µM
same,GI50,HCC-2998 colon,1.56 µM
same,TGI,HCC-2998 colon,2.93 µM
same,GI50,CAKI-1 renal,2.12 µM
same,TGI,CAKI-1 renal,6.17 µM
same,GI50,SW-620 colon,1.78 µM
same,TGI,SW-620 colon,3.6 µM
same,GI50,MALME-3M melanoma,3.2 µM
same,TGI,MALME-3M melanoma,14.9 µM
same,GI50,HT29 colon,1.67 µM
same,TGI,HT29 colon,3.53 µM
same,GI50,SF-539 CNS,1.69 µM
same,TGI,SF-539 CNS,3.15 µM
same,GI50,OVCAR-8 ovarian,2.48 µM
same,TGI,OVCAR-8 ovarian,7.04 µM
same,GI50,MDA-MB-435,2.4 µM
same,TGI,MDA-MB-435,6.72 µM
same,GI50,OVCAR-4 ovarian,2.96 µM
same,TGI,OVCAR-4 ovarian,10.9 µM
